# Source: ChEMBL document CHEMBL5029163, “Enhancing the Pharmacokinetic Profile of Interleukin 2 through Site-Specific Conjugation to a Selective Small-Molecule Transthyretin Ligand” (J Med Chem, 2021)
# Calls of active or inactive are those of the source. The rule behind the calls is not given here.
# Legend:
# Transthyretin [1] = biological target: T1, Transthyretin (Homo sapiens, UniProt P02766); test: Binding affinity to human TTR assessed as binding constant in PBS buffer at pH 7.4 measured after 20 mins fluorescence polarization assay
# Transthyretin [2] = biological target: T1, Transthyretin; test: Binding affinity to human TTR in human serum assessed as target occupancy at 10 uM measured every 15 mins for 6 hrs by fluorescent probe exclusion selectivity assay; type: cell-free
# [3] = biological target: Interleukin-2 (Homo sapiens) (UniProt P60568); test: Induction of stability of human recombinant interleukin 2 assessed as binding affinity to human TTR in human serum by measuring target occupancy at 10 uM measured every 15 mins for 6 hrs by fluorescent probe exclusion selectivity assay; type: cell-free
# Sequence of Interleukin-2 (Homo sapiens) (P60568 whole entry): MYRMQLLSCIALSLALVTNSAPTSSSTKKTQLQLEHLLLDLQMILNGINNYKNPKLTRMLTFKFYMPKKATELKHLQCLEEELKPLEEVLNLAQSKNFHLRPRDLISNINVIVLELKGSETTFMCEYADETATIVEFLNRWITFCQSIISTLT
# [4] = biological target: Interleukin-2 (Homo sapiens) (UniProt P60568); test: Induction of stability of human recombinant interleukin 2 assessed as half life in Sprague-Dawley rat plasma at 0.8 mg/kg, iv measured up to 24 hrs by ELISA (Rvb= 1.26+/-0.18 hrs); type: organism-based; details: time hrs <=24
# [5] = biological target: Interleukin-2 (Homo sapiens) (UniProt P60568); test: Induction of stability of human recombinant interleukin 2 assessed as mean residence time in Sprague-Dawley rat at 0.8 mg/kg, iv measured up to 24 hrs by ELISA (Rvb= 1.04+/-0.07 hrs); type: organism-based; details: time hrs <=24
# [6] = biological target: Interleukin-2 (Homo sapiens) (UniProt P60568); test: Induction of stability of human recombinant interleukin 2 assessed as effect on mouse CTLL-2 cell proliferation in presence of TTR measured after 48 hrs by WST-1 assay
smiles,measurement,setting,value
Cc1n[nH]c(C)c1CCCOc1cc(OCCCc2cn(CCOCCOCCOCCOCCNC(=O)C3CCC(CN4C(=O)C=CC4=O)CC3)nn2)cc(C(=O)O)c1 (stereo unspecified),Kd,Transthyretin [1],516 nM
same,Occ,Transthyretin [2],51.8%
same,Occ,[3],52.6%
same,T1/2,[4],5.22 h
same,MRT,[5],8.76 h
same,Activity,[6],inactive
